Assay results as given in patent publication US20160175223A1, “ANTI-AGING COMPOSITIONS COMPRISING BILE ACID-FATTY ACID CONJUGATES” (GALDERM THERAPEUTICS LTD., priority 2013, published 2016).

Assays:
human skin fibroblasts = assay: [3H] cholesterol efflux in skin fibroblasts; format: cell-based; details: 20 hours incubation, compared to untreated cells
Protocol: (§1) Steamchol was incubated with human skin fibroblasts for 20 hours to measure cholesterol loading in the presence of [^3H] cholesterol. After series of washing and adding efflux containing cholesterol acceptors, medium was collected and centrifuged and cell associated cholesterol was compared to effluxed cholesterol in the presence and absence of the similar FABAC. This research project also included quantification of mRNA of ABCA1 and direct measurement of ABCA1.
(§2) Similarly, cells were pre-incubated with [^3H] cholesterol, washed four times and then placed in an incubation medium with or without Aramchol for 20 hours. Following the incubation, radioactivity was measured separately in the medium and in the cells. Cholesterol efflux percentage was calculated as radioactivity in medium divided by the total radioactivity (cells+medium).

ABCA1 [1] = assay: Direct measurement of ABCA1 protein in skin fibroblasts; format: cell-based, human; details: efflux in the presence of FABAC, compared to untreated cells
Protocol: as §1, §2

[2] = tested on: Full-thickness Epiderm cultures (EFT-400, MatTek); assay: Cytotoxicity assay (MTT) after topical application to full-thickness skin cultures; format: cell-based; details: 24-hour exposure; for Cell Viability: 10 μL topical, MTT, vs untreated control
Protocol: (§3) Full-thickness Epiderm cultures (EFT-400, MatTek) were used to determine toxicity in response to topical application of a test material (Steamchol).
The test material was provided as a powder. Test solutions were prepared by adding the appropriate amount of powdered material to 1 mL DMSO. Lower concentrations were made by serial dilution with 100% DMSO. The final test material concentrations and treatments are listed below: • 2% Steamchol (20,000 ug/mL) • 1% Steamchol (10,000 ug/mL) • 0.1% Steamchol (1000 ug/mL) • 0.01% Steamchol (100 ug/mL) • vehicle control (100% DMSO) • untreated control
Full-thickness skin cultures (EFT-400) were maintained as required to ensure viability; the cultures were equilibrated at 37° C. and 5% CO2 for 24 hours prior to application of test materials. Test material was applied to the surface of each culture using sterile techniques (10 μL applied to each culture). Two cultures were assigned to each treatment group. Two EFT cultures served as an untreated control (also referred to as negative control in FIG. 2), and two other EFT cultures served as a positive control (100 μL 1% Triton X-100).
Following a 24-hour incubation period with the test material, cultures were processed for cell toxicity analysis using an MTT [(3-4,5-dimethylthiazole-2-yl)2,5-diphenyltetrazoliumbromide] assay (reagents purchased from MatTek). Viable tissues converted MTT into a blue formazan salt that was detected by measuring absorbance at a specific wavelength of light (A570). Percent viability was calculated by comparing the A570 reading of the test cultures to the A570 of the untreated control culture, using the following formula: [Treated A570/Untreated A570]*100.

[3] = tested on: Full-thickness Epiderm cultures (EFT-400, MatTek); assay: Previous viability assay; format: cell-based; details: concentrations of 40.0, 13.3, 4.4, 1.5 ug/mL
Excerpt: as §3

ABCA1 [4] = assay: Taqman gene expression in Epiderm FT skin culture: ABCA1 mRNA; format: cell-based, human; details: 0.5% (5000 ug/mL) in DMSO, 24 hours post-application, vs DMSO control
Protocol: A full-thickness in vitro skin culture model, Epiderm FT (MatTek, MA), was treated with Steamchol. Steamchol in DMSO (0.5%, 5000 ug/mL) was applied to the surface of each test culture and cells were collected 24 hours post-application. Control cells were similarly treated with DMSO without Steamchol.
Tissues were collected in RNA later for gene expression analysis. Gene expression was analyzed using validated Taqman gene expression assays in Taqman Low Density Array (TLDA) format. 94 genes that regulate a variety of known functions in skin were analyzed including the ABCA1 and SCD1 genes. The experimental set up was conducted in a 96-well format using validated Taqman gene expression assays. Each gene was assayed in duplicates. Statistics were carried out using the StatMiner software v4.2 (unpaired t-tests, p≦0.05, N=4) to compare the Steamchol group to the DMSO control group.

| Compound | Cholesterol efflux in fibroblasts (human skin fibroblasts) | ABCA1 protein concentration increase (ABCA1 [1]) | Cell Viability ([2]; 0.01% Steamchol (100 ug/mL) in DMSO) | Cell Viability ([2]; 0.1% Steamchol (1000 ug/mL) in DMSO) | Cell Viability ([2]; 1% Steamchol (10,000 ug/mL) in DMSO) | Cell Viability ([2]; 2% Steamchol (20,000 ug/mL) in DMSO) | Cell viability compared to the untreated control ([2]; all dilutions tested (0.01%-2% in DMSO)) | Toxicity in viability assay [3] | Change in mRNA levels of ABCA1 (ABCA1 [4]) |
| --- | --- | --- | --- | --- | --- | --- | --- | --- | --- |
| CCCCCCCCCCCCCCCCCCCC(=O)N[C@H]1CC[C@@]2(C)[C@@H](C1)C[C@@H](O)[C@@H]1[C@@H]2C[C@H](O)[C@]2(C)[C@@H]([C@H](C)CCC(=O)O)CC[C@@H]12 [Aramchol, 3β-arachidylamido-7α,12α, dihidroxy-5β-cholan-24-oic acid] | significantly enhanced | approximately 2 fold | – | – | – | – | – | – | – |
| CCCCCCCCCCCCCCCCCC(=O)N[C@H]1CC[C@@]2(C)[C@@H](C1)C[C@@H](O)[C@@H]1[C@@H]2C[C@H](O)[C@]2(C)[C@@H]([C@H](C)CCC(=O)O)CC[C@@H]12 [Steamchol, 3β-stearylamido-7α,12α, dihidroxy-5β-cholan-24-oic acid] | significantly enhanced | approximately 2 fold | 100.41% | 99.98% | 96.88% | 93.89% | ~100% | no toxicity was observed | No significant change |
